In US12187723B2 (BRISTOL-MYERS SQUIBB COMPANY, priority 2019, dated 2025):

target: T1, human TLR9 (Homo sapiens, UniProt Q9NR96); assay: TLR9 inhibition reporter assay (HEK-Blue SEAP); assay type: cell-based; conditions: HEK-Blue cells overexpressing human TLR9, ODN2006 5 nM, 22 hour incubation
T1 construct: host or cells: HEK-Blue cells
T1 sequence (Q9NR96 26-1032): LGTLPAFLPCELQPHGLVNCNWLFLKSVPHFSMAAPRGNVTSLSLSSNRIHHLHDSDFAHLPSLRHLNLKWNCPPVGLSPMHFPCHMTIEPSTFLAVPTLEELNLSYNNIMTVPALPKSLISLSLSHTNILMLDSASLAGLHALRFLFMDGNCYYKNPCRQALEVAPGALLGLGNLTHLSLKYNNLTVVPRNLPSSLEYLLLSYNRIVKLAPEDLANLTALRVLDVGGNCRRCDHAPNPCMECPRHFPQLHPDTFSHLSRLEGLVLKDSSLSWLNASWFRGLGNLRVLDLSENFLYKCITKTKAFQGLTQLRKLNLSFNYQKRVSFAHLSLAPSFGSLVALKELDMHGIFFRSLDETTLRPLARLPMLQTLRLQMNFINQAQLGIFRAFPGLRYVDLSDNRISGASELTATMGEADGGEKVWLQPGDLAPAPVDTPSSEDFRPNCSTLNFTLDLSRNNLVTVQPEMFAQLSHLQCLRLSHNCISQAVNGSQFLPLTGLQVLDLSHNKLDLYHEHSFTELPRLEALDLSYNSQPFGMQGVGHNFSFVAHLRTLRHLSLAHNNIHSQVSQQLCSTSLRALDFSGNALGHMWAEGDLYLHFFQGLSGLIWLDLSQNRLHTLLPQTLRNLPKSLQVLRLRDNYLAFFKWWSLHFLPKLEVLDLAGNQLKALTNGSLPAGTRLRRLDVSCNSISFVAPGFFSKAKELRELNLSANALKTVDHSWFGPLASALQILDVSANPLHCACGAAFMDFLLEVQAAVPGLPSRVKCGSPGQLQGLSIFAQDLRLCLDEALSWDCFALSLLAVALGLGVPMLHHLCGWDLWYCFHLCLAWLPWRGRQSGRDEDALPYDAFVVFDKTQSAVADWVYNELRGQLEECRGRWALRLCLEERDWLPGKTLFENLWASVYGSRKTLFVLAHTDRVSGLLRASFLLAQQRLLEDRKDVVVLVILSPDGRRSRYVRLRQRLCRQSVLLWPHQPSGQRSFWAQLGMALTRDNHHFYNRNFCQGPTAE
Summary of the method: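 Dose–response from 0.05 nM to 50 μM was run in HEK-Blue human TLR7, TLR8 and TLR9 reporter cells. After 30 min at room temperature with compound, ligand was added (TLR7 gardiquimod 7.5 μM; TLR8 R848 15.9 μM; TLR9 ODN2006 5 nM) and SEAP measured next day, at 22 h.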

Row | Compound | IC50 [µM]
1 | CCc1cc2c(cc1-c1cc(OC)c3ncnn3c1)[nH]c(=O)n2[C@@H]1CCCN(C2CCOCC2)C1 [Example 184, (R)-6-ethyl-5-(8-methoxy-[1,2,4]triazolo[1,5-a]pyridin-6-yl)-1-(1-(tetrahydro-2H-pyran-4-yl)piperidin-3-yl)-1,3-dihydro-2H-benzo[d]imidazol-2-one] | 26.6
2 | Cc1c(-c2cc3[nH]c(=O)n([C@H]4CC[C@@H](N(C)C)CC4)c3cc2C(C)C)cn2ncnc2c1C [Example 185, 5-(7,8-dimethyl-[1,2,4]triazolo[1,5-a]pyridin-6-yl)-1-((1s,4s)-4-(dimethylamino)cyclohexyl)-6-isopropyl-1,3-dihydro-2H-benzo[d]imidazol-2-one] | 7.07
3 | Cc1c(-c2cc3[nH]c(=O)n([C@H]4CC[C@@H](NC(C)C)CC4)c3cc2C(C)C)cn2ncnc2c1C [Example 186, 5-(7,8-dimethyl-[1,2,4]triazolo[1,5-a]pyridin-6-yl)-6-isopropyl-1-((1s,4s)-4-(isopropylamino)cyclohexyl)-1,3-dihydro-2H-benzo[d]imidazol-2-one] | 5.99
4 | Cc1c(-c2cc3[nH]c(=O)n([C@H]4CC[C@@H](NC5CCOCC5)CC4)c3cc2C(C)C)cn2ncnc2c1C [Example 187, 5-(7,8-dimethyl-[1,2,4]triazolo[1,5-a]pyridin-6-yl)-6-isopropyl-1-((1s,4s)-4-((tetrahydro-2H-pyran-4-yl)amino)cyclohexyl)-1,3-dihydro-2H-benzo[d]imidazol-2-one] | 12.8
5 | Cc1c(-c2cc3[nH]c(=O)n([C@H]4CC[C@@H](NC5COC5)CC4)c3cc2C(C)C)cn2ncnc2c1C [Example 188, 5-(7,8-dimethyl-[1,2,4]triazolo[1,5-a]pyridin-6-yl)-6-isopropyl-1-((1s,4s)-4-(oxetan-3-ylamino)cyclohexyl)-1,3-dihydro-2H-benzo[d]imidazol-2-one] | 22.2
6 | CCN[C@H]1CC[C@@H](n2c(=O)[nH]c3cc(-c4cn5ncnc5c(C)c4C)c(C(C)C)cc32)CC1 [Example 189, 5-(7,8-dimethyl-[1,2,4]triazolo[1,5-a]pyridin-6-yl)-1-((1s,4s)-4-(ethylamino)cyclohexyl)-6-isopropyl-1,3-dihydro-2H-benzo[d]imidazol-2-one] | > 50
7 | COc1cc(-c2cc3[nH]c(=O)n([C@H]4CC[C@@H](NC5CCOCC5)CC4)c3cc2C(C)C)cn2ncnc12 [Example 193, 6-isopropyl-5-(8-methoxy-[1,2,4]triazolo[1,5-a]pyridin-6-yl)-1-((1s,4s)-4-((tetrahydro-2H-pyran-4-yl)amino)cyclohexyl)-1,3-dihydro-2H-benzo[d]imidazol-2-one] | 21.4
8 | COc1cc(-c2cc3[nH]c(=O)n([C@H]4CC[C@@H](NCC5CCOCC5)CC4)c3cc2C(C)C)cn2ncnc12 [Example 196, 6-isopropyl-5-(8-methoxy-[1,2,4]triazolo[1,5-a]pyridin-6-yl)-1-((1s,4s)-4-(((tetrahydro-2H-pyran-4-yl)methyl)amino)cyclohexyl)-1,3-dihydro-2H-benzo[d]imidazol-2-one] | 8.96
9 | CCC(CC)CN[C@H]1CC[C@@H](n2c(=O)[nH]c3cc(-c4cn5ncnc5c(C)c4C)c(C(C)C)cc32)CC1 [Example 198] | 2.13
10 | CCCN(CCC)[C@H]1CC[C@@H](n2c(=O)[nH]c3cc(-c4cn5ncnc5c(C)c4C)c(C(C)C)cc32)CC1 [Example 199, 5-(7,8-dimethyl-[1,2,4]triazolo[1,5-a]pyridin-6-yl)-1-((1s,4s)-4-(dipropylamino)cyclohexyl)-6-isopropyl-1,3-dihydro-2H-benzo[d]imidazol-2-one] | 3.37
11 | Cc1c(-c2cc3[nH]c(=O)n([C@H]4CC[C@@H](NCC5CCOCC5)CC4)c3cc2C(C)C)cn2ncnc2c1C [Example 200, 5-(7,8-dimethyl-[1,2,4]triazolo[1,5-a]pyridin-6-yl)-6-isopropyl-1-((1s,4s)-4-(((tetrahydro-2H-pyran-4-yl)methyl)amino)cyclohexyl)-1,3-dihydro-2H-benzo[d]imidazol-2-one] | 7.05
12 | COc1cc(-c2cc3[nH]c(=O)n([C@H]4CC[C@H](NC5COC5)CC4)c3cc2C(C)C)cn2ncnc12 [Example 201, 6-isopropyl-5-(8-methoxy-[1,2,4]triazolo[1,5-a]pyridin-6-yl)-1-((1r,4r)-4-(oxetan-3-ylamino)cyclohexyl)-1,3-dihydro-2H-benzo[d]imidazol-2-one] | 22.9
13 | COc1cc(-c2cc3[nH]c(=O)n([C@H]4CC[C@H](N(CC(C)C)CC(C)C)CC4)c3cc2C(C)C)cn2ncnc12 [Example 205, 1-((1r,4r)-4-(diisobutylamino)cyclohexyl)-6-isopropyl-5-(8-methoxy-[1,2,4]triazolo[1,5-a]pyridin-6-yl)-1,3-dihydro-2H-benzo[d]imidazol-2-one] | 11.6
14 | COc1cc(-c2cc3[nH]c(=O)n([C@H]4CC[C@H](N(CC5CC5)CC5CC5)CC4)c3cc2C(C)C)cn2ncnc12 [Example 206, 1-((1r,4s)-4-(bis(cyclopropylmethyl)amino)cyclohexyl)-6-isopropyl-5-(8-methoxy-[1,2,4]triazolo[1,5-a]pyridin-6-yl)-1,3-dihydro-2H-benzo[d]imidazol-2-one] | 6.53

Results, then the molecule that gave them:

Row | IC50 [µM] | Compound
15 | 5.05 | Cc1c(-c2cc3[nH]c(=O)n([C@H]4CC[C@@H](NCC(C)(C)C)CC4)c3cc2C(C)C)cn2ncnc2c1C [Example 190, 5-(7,8-dimethyl-[1,2,4]triazolo[1,5-a]pyridin-6-yl)-6-isopropyl-1-((1s,4s)-4-(neopentylamino)cyclohexyl)-1,3-dihydro-2H-benzo[d]imidazol-2-one]
16 | 11.7 | COc1cc(-c2cc3[nH]c(=O)n([C@H]4CC[C@@H](N(C)C)CC4)c3cc2C(C)C)cn2ncnc12 [Example 191, 1-((1s,4s)-4-(dimethylamino)cyclohexyl)-6-isopropyl-5-(8-methoxy-[1,2,4]triazolo[1,5-a]pyridin-6-yl)-1,3-dihydro-2H-benzo[d]imidazol-2-one]
17 | 16.6 | COc1cc(-c2cc3[nH]c(=O)n([C@H]4CC[C@@H](NC(C)C)CC4)c3cc2C(C)C)cn2ncnc12 [Example 192, 6-isopropyl-1-((1s,4s)-4-(isopropylamino)cyclohexyl)-5-(8-methoxy-[1,2,4]triazolo[1,5-a]pyridin-6-yl)-1,3-dihydro-2H-benzo[d]imidazol-2-one]
18 | 2.08 | CCC(CC)CN[C@H]1CC[C@@H](n2c(=O)[nH]c3cc(-c4cc(OC)c5ncnn5c4)c(C(C)C)cc32)CC1 [Example 194]
19 | 13.9 | CCCN[C@H]1CC[C@@H](n2c(=O)[nH]c3cc(-c4cc(OC)c5ncnn5c4)c(C(C)C)cc32)CC1 [Example 195, 6-isopropyl-5-(8-methoxy-[1,2,4]triazolo[1,5-a]pyridin-6-yl)-1-((1 s,4s)-4-(propylamino)cyclohexyl)-1,3-dihydro-2H-benzo[d]imidazol-2-one]
20 | 6.26 | COc1cc(-c2cc3[nH]c(=O)n([C@H]4CC[C@@H](NCC(C)(C)C)CC4)c3cc2C(C)C)cn2ncnc12 [Example 197, 6-isopropyl-5-(8-methoxy-[1,2,4]triazolo[1,5-a]pyridin-6-yl)-1-((1s,4s)-4-(neopentylamino)cyclohexyl)-1,3-dihydro-2H-benzo[d]imidazol-2-one]
21 | 23 | COc1cc(-c2cc3[nH]c(=O)n([C@H]4CC[C@H](N(C)C)CC4)c3cc2C(C)C)cn2ncnc12 [Example 202, 1-((1r,4r)-4-(dimethylamino)cyclohexyl)-6-isopropyl-5-(8-methoxy-[1,2,4]triazolo[1,5-a]pyridin-6-yl)-1,3-dihydro-2H-benzo[d]imidazol-2-one]
22 | 30.9 | COc1cc(-c2cc3[nH]c(=O)n([C@H]4CC[C@H](NC(C)C)CC4)c3cc2C(C)C)cn2ncnc12 [Example 203, 6-isopropyl-1-((1r,4s)-4-(isopropylamino)cyclohexyl)-5-(8-methoxy-[1,2,4]triazolo[1,5-a]pyridin-6-yl)-1,3-dihydro-2H-benzo[d]imidazol-2-one]
23 | 11.7 | COc1cc(-c2cc3[nH]c(=O)n([C@H]4CC[C@H](NCC(C)C)CC4)c3cc2C(C)C)cn2ncnc12 [Example 204, 1-((1r,4s)-4-(isobutylamino)cyclohexyl)-6-isopropyl-5-(8-methoxy-[1,2,4]triazolo[1,5-a]pyridin-6-yl)-1,3-dihydro-2H-benzo[d]imidazol-2-one]
